# According to the supplement of paper PMC10307832:
# Assays:
# Assay in all cases: relative viability (nuclei count vs DMSO), 5 days (fraction); higher = more cells survive
# BI-2536 + Palbociclib = compound: CC[C@@H]1C(=O)N(C)c2cnc(Nc3ccc(C(=O)NC4CCN(C)CC4)cc3OC)nc2N1C1CCCC1 [BI-2536] + CC(=O)c1c(C)c2cnc(Nc3ccc(N4CCNCC4)cn3)nc2n(C2CCCC2)c1=O [Palbociclib] (partner 0.5 µM)
# How it was run: (§1)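 Relative viability was taken as the ratio of nuclei in treated wells to nuclei in vehicle wells. Lung cancer cell lines in 1536-well plates received compounds by pin tool one day after seeding, either one drug alone or a fixed anchor-drug dose plus five library-drug doses (not always all listed) in √10 steps. Nuclei were counted on 4× images after 5 days of treatment, and values are medians of duplicate plates.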
# BI-2536 + Dasatinib = compound: CC[C@@H]1C(=O)N(C)c2cnc(Nc3ccc(C(=O)NC4CCN(C)CC4)cc3OC)nc2N1C1CCCC1 [BI-2536] + Cc1nc(Nc2ncc(C(=O)Nc3c(C)cccc3Cl)s2)cc(N2CCN(CCO)CC2)n1 [Dasatinib] (partner 0.075 µM)
# How it was run: as §1
# [1] = compound: CC1CC(=O)N(C2=CN=C(N=C2N1C3CCCC3)NC4=C(C=C(C=C4)C(=O)NC5CCN(CC5)C)OC)C [NPK76-II-72-1] + C[C@]1(O)C[C@@H](c2nc(-c3ccc4ccc(-c5ccccc5)nc4c3)c3c(N)nccn32)C1 [Linsitinib] (partner 1 µM)
# How it was run: as §1
# [2] = compound: CC1CC(=O)N(C2=CN=C(N=C2N1C3CCCC3)NC4=C(C=C(C=C4)C(=O)NC5CCN(CC5)C)OC)C [NPK76-II-72-1] + CC(C)C[C@H](NC(=O)[C@H](Cc1ccccc1)NC(=O)c1cnccn1)B(O)O [Bortezomib] (partner 0.002 µM)
# How it was run: as §1
Cell Line,relative viability (BI-2536 + Palbociclib; first compound 0.01 µM),relative viability (BI-2536 + Palbociclib; first compound 0.03162 µM),relative viability (BI-2536 + Palbociclib; first compound 0.1 µM),relative viability (BI-2536 + Palbociclib; first compound 0.3162 µM),relative viability (BI-2536 + Palbociclib; first compound 1 µM),relative viability (BI-2536 + Dasatinib; first compound 0.01 µM),relative viability (BI-2536 + Dasatinib; first compound 0.03162 µM),relative viability (BI-2536 + Dasatinib; first compound 0.1 µM),relative viability (BI-2536 + Dasatinib; first compound 0.3162 µM),relative viability (BI-2536 + Dasatinib; first compound 1 µM),relative viability ([1]; first compound 0.01 µM),relative viability ([1]; first compound 0.03162 µM),relative viability ([1]; first compound 0.1 µM),relative viability ([1]; first compound 0.3162 µM),relative viability ([1]; first compound 1 µM),relative viability ([2]; first compound 0.01 µM),relative viability ([2]; first compound 0.03162 µM),relative viability ([2]; first compound 0.1 µM),relative viability ([2]; first compound 0.3162 µM),relative viability ([2]; first compound 1 µM)
NCI-H1355,0.415,0.405,0.385,0.171,0.158,0.694,0.78,0.359,0.23,0.199,0.844,0.837,0.809,0.792,0.848,1.06,1.12,1.03,1.13,1.19
NCI-H1437,0.332,0.281,0.273,0.159,0.197,0.318,0.365,0.247,0.173,0.108,0.973,1.08,0.986,0.802,1.07,0.473,0.445,0.425,0.409,0.494
NCI-H1651,0.5,0.505,0.514,0.41,0.0953,0.138,0.376,0.075,0.1,0.0509,0.947,0.972,1.09,0.867,1.05,0.95,0.954,0.903,0.9,0.991
NCI-H1666,0.701,0.575,0.642,0.505,0.467,0.765,0.653,0.716,0.313,0.267,0.78,0.815,0.783,0.8,0.79,0.9,0.801,0.73,0.647,1.03
NCI-H1734,0.358,0.349,0.256,0.203,0.192,0.439,0.462,0.167,0.145,0.131,0.896,0.899,0.883,0.884,0.904,0.879,0.96,0.969,0.779,1.13
NCI-H1755,0.473,0.477,0.424,0.377,0.385,0.452,0.391,0.271,0.195,0.198,0.972,1,0.947,1.01,0.985,0.932,0.898,0.95,0.98,1.08
NCI-H1792,0.72,0.706,0.76,0.349,0.215,0.762,0.916,0.885,0.498,0.34,0.615,0.629,0.52,0.492,0.591,1.06,0.961,0.829,0.879,1.07
NCI-H1915,0.424,0.546,0.426,0.0999,0.0968,0.292,0.354,0.139,0.156,0.0656,1.11,1.1,1.11,1.07,1.14,0.981,1.04,0.848,0.865,1.02
NCI-H1975,0.349,0.648,0.461,0.14,0.158,0.374,0.334,0.194,0.0936,0.0979,0.956,0.921,0.913,1.01,1.03,0.34,0.37,0.292,0.41,0.402
NCI-H1993,0.623,0.714,0.5,0.468,0.427,0.688,0.577,0.51,0.514,0.485,0.728,0.768,0.576,0.657,0.778,1,1.09,0.775,0.729,0.873
NCI-H2009,0.195,0.171,0.119,0.142,0.0906,0.256,0.248,0.169,0.137,0.0971,1.18,1.18,1.08,1.2,1.15,1.01,1.1,1.09,0.842,1.24
NCI-H2023,0.382,0.348,0.168,0.102,0.0824,0.587,0.463,0.346,0.0877,0.0801,0.488,0.713,0.716,0.56,0.655,0.968,1.09,1.15,1.01,1.23
NCI-H2085,0.489,0.446,0.409,0.287,0.301,0.26,0.232,0.232,0.157,0.19,0.914,0.997,0.934,0.87,0.923,1.05,1.01,0.977,0.953,1.02
NCI-H2087,0.225,0.189,0.203,0.0781,0.118,0.913,0.926,0.509,0.105,0.0876,1.02,0.996,0.909,1,1.11,0.941,0.861,0.63,0.737,0.82
NCI-H2126,0.324,0.368,0.352,0.276,0.232,0.659,0.58,0.294,0.26,0.224,0.756,0.777,0.701,0.671,0.752,1.01,1.16,1.11,1.07,1.16
NCI-H2228,0.749,0.618,0.232,0.157,0.111,0.448,0.372,0.116,0.0877,0.0886,0.428,0.572,0.763,0.66,0.736,0.799,0.81,0.935,0.942,1.31
NCI-H2347,0.471,0.426,0.369,0.385,0.387,–,0.293,0.285,0.278,0.167,0.925,1.03,1,0.896,0.983,0.827,1.24,0.697,0.756,1.01
NCI-H2405,0.514,0.509,0.359,0.284,0.349,0.19,0.214,0.178,0.102,0.177,0.88,1.01,0.905,0.819,1.08,1.01,0.99,0.921,0.753,1.11
NCI-H3122,0.191,0.175,0.171,0.132,0.159,0.813,0.878,0.158,0.0979,0.104,0.945,1.03,1.09,1.03,1.05,1,1.01,0.935,1.03,1.02
PC-3 [JPC-3],0.54,0.828,0.5,0.416,0.424,1.02,0.925,0.879,0.266,0.188,0.927,0.91,0.936,0.935,0.963,0.83,0.897,0.581,0.778,0.81
PC-14,0.458,0.489,0.0853,0.0424,0.0288,0.269,–,0.0367,0.0318,0.0158,0.927,1.1,0.938,0.874,1.06,0.809,0.849,0.892,0.839,1.08
RERF-LC-KJ,1.09,0.949,0.491,0.266,0.241,0.746,0.574,0.234,0.189,0.217,0.902,0.876,0.802,0.771,0.923,1.11,1.11,1.07,0.916,1.08
SK-LU-1,0.328,0.419,0.323,0.202,0.221,0.176,0.143,0.108,0.113,0.099,1.07,1.09,1.16,1.02,1.33,0.931,1.15,0.829,1.23,1.42
SW 1573,0.347,0.237,0.172,0.116,0.0925,0.563,0.222,0.0892,0.0839,0.0938,0.808,0.794,0.721,0.728,0.681,1.13,1.04,0.822,1.04,1.27
